Patent US6214833A, “Pyrimidinone-1,3-oxathiolane derivatives with antiviral activity” (Zambon Group S.p.A., priority 1997, dated 2001)

System: fresh human macrophages infected by the macrophage-trophic HIV-1 PAR strain
Test: anti-HIV activity on macrophages: inhibition of viral reverse transcriptase activity in culture supernatant at peak
Format: cell-based, HIV-1 PAR strain; human macrophages
Conditions: Human immunodeficiency virus 1, Macrophage; fresh human macrophages infected by HIV-1 PAR; about 1 month culture at 37° C.; at peak of reverse transcriptase expression
Procedure: (§1) The antiviral activity of the compounds of formula I, object of the present invention, was evaluated on the MT4 human lymphocytes infected by HIV-1 BRU strain and on fresh human macrophages infected by the macrophage-trophic HIV-1 PAR strain.
(§2) Both kinds of experiment were carried out following conventionally used methods for the evaluation of reverse transcriptase inhibitors and are predictive of the in vivo anti-HIV activity.
(§3) The anti-HIV activity of the compounds of formula I was evaluated on the limphocitic human cell line MT4 infected by HIV-1 strain BRU and on fresh human macrophages infected by the macrophage-trophic HIV- 1 PAR strain.
The cells, infected and treated with the compounds of formula I, were cultured at 37° C. for about 1 month. Every 3-4 days the culture supernatant was withdrawn and substituted with fresh medium containing or not the compounds of formula I. The viral reverse-transcriptase activity, determined in the culture supernatant every 3-4 days, was followed up to the end of the experiment by determining the maximum peak of the enzyme expression. In the correspondence of such a peak the anti-HIV activity was evaluated as 50% inhibition (IC50) of the enzymatic activity in the supernatant of the infected and treated cultures in comparison with the control ones.
The used methodology was described by Schmidtmayerova H. et al. on Virology (1992), 190, 124-133.
(§4) In the following table the data of anti-HIV activity on both the cell lines for some representative compounds of formula I are reported.

Row | SMILES | IC50 [µM]
1 | Nc1ccn([C@@H]2CS[C@H](CO)O2)c(=O)n1 (relative stereo) [BCH-189, 4-amino-1-(2-hydroxymethyl-1,3-oxathiolan-5-yl)-2(1H)-pyrimidinone, reference compound] | 0.1
2 | O=C(CCCCCNCCCCCCNCc1ccccc1)Nc1ccn([C@@H]2CS[C@H](CO)O2)c(=O)n1 (relative stereo) [Compound 56, (±)-1-(2-Hydroxymethyl-1,3-oxathiolan-5-yl)-4-[6-[6-phenylmethylamino)hexylamino]-hexanoylamino]-2(1H)-pyrimidinone] | 0.1
3 | O=C(CCCCCNCCCCCNCc1ccccc1)Nc1ccn([C@@H]2CS[C@H](CO)O2)c(=O)n1 (relative stereo) [Compound 57, (±)-1-(2-Hydroxymethyl-1,3-oxathiolan-5-yl)-4-[6-[5-(phenylmethylamino)pentylamino]-hexanoylamino]-2(1H)-pyrimidinone] | 0.1

System: limphocitic human cell line MT4 infected by HIV-1 strain BRU
Test: anti-HIV activity on lymphocytes (MT4 cells): inhibition of viral reverse transcriptase activity in culture supernatant
Format: cell-based, HIV-1 strain BRU; human MT4 cells
Conditions: Human immunodeficiency virus 1, Lymphocyte, MT4 human lymphocytes infected by HIV-1 BRU, 7-8 days culture at 37° C.
Procedure: as §1, §2, §3
The cells, infected and treated with the compounds of formula I, were cultured at 37° C. for 7-8 days. Every 3-4 days the culture supernatant was withdrawn and substituted with fresh medium containing or not the compounds of formula I. The anti-HIV activity was evaluated at the end of the experiment as 50% inhibition (IC50) of the activity of the viral reverse transcriptase in the supernatant of infected cultures in comparison with the control cultures.
The used methodologies were described in the papers published by Rey M. A. et al. on Biochem. Biophys. Res. Commun. (1984), 121, 126-133 and on Virology (1991), 181, 165-171.
as §4

Row | SMILES | IC50 [µM]
4 | Nc1ccn([C@@H]2CS[C@H](CO)O2)c(=O)n1 (relative stereo) [BCH-189, 4-amino-1-(2-hydroxymethyl-1,3-oxathiolan-5-yl)-2(1H)-pyrimidinone, reference compound] | 0.7
5 | CC(C)(C)OC(=O)N(CCCCCC(=O)OC[C@@H]1O[C@H](n2ccc(N)nc2=O)CS1)CCCCCN(Cc1ccccc1)C(=O)OC(C)(C)C (relative stereo) [Compound 1, (±)-4-Amino-1-[2-[6-[5-(N'-tert-butoxycarbonyl-N'-phenylmethylamino)-N-tert-butoxycarbonyl-pentylamino]-hexanoyloxymethyl]-1,3-oxathiolan-5-yl]-2(1H)-pyrimidinone] | 0.001 to 0.005
6 | CC(C)(C)OC(=O)N(CCCCCC(=O)OC[C@@H]1O[C@H](n2ccc(N)nc2=O)CS1)Cc1ccccc1 (relative stereo) [Compound 4, (±)-4-Amino-1-[2-[6-(N-tert-butoxycarbonyl-N-phenylmethylamino)-hexanoyloxy-methyl]-1,3-oxathiolan-5-yl]-2(1H)-pyrimidinone] | 0.001
7 | CC(C)(C)OC(=O)N(CCCCCC(=O)OC[C@@H]1O[C@H](n2ccc(N)nc2=O)CS1)Cc1cccc(C(F)(F)F)c1 (relative stereo) [Compound 6, (±)-4-Amino-1-[2-[6-[N-tert-butoxycarbonyl-N-(3trifluoromethylphenyl)methyl-amino]-hexanoyloxymethyl-]1,3-oxathiolan-5-yl]-2(1H)-pyrimidinone] | 0.004
8 | CC(C)(C)OC(=O)N(CCCCCC(=O)OC[C@@H]1O[C@H](n2ccc(N)nc2=O)CS1)Cc1ccccc1C(F)(F)F (relative stereo) [Compound 7, (±)-4-Amino-1-[2-[6-[N-tert-butoxycarbonyl-N-(2-trifluoromethyl-phenyl)methyl-amino]-hexanoyloxymethyl-]-1,3-oxathiolan-5-yl]-2(1H)-pyrimidinone] | 0.001 to 0.01
9 | CC(C)(C)OC(=O)N(CCCCCCN(Cc1ccccc1C(F)(F)F)C(=O)OC(C)(C)C)CCCCCC(=O)OC[C@@H]1O[C@H](n2ccc(N)nc2=O)CS1 (relative stereo) [Compound 8, (±)-4-Amino-1-[2-[6-[6-[N'-tert-butoxycarbonyl-N'-(2-trifluoromethylphenyl)methylamino]-N-tert-butoxycarbonyl-hexylamino]-hexanoyloxymethyl]-1,3-oxathiolan-5-yl]-2(1H)-pyrimidinone] | 0.1
10 | CCOC(=O)N(CCCCCC(=O)OC[C@@H]1O[C@H](n2ccc(N)nc2=O)CS1)Cc1ccccc1 (relative stereo) [Compound 9, (±)-4-Amino-1-[2-[6-(N-ethoxycarbonyl-N-phenylmethylamino)-hexanoyloxymethyl]-1,3-oxathiolan-5-yl]-2(1H)-pyrimidinone] | 0.001 to 0.05
11 | CC(C)(C)OC(=O)N(CC(=O)OC[C@@H]1O[C@H](n2ccc(N)nc2=O)CS1)Cc1ccccc1 (relative stereo) [Compound 10, (±)-4-Amino-1-[2-[(N-tert-butoxycarbonyl-N-phenylmethylamino)-acetyloxymethyl]-1,3-oxathiolan-5-yl]-2(1H)-pyrimidinone] | 0.01 to 0.1
12 | Nc1ccn([C@@H]2CS[C@H](COC(=O)CCCCCNCCCCCNCc3ccccc3)O2)c(=O)n1 (relative stereo) [Compound 48, (±)-4-Amino-1-[2-[6-[5-(phenylmethylamino)pentylamino]-hexanoyloxymethyl]-1,3-oxathiolan-5-yl]-2(1H)-pyrimidinone] | 0.15
13 | Nc1ccn([C@@H]2CS[C@H](COC(=O)CCCCNCCCCCCNCc3ccccc3)O2)c(=O)n1 (relative stereo) [Compound 49, (±)-4-Amino-1-[2-[5-[6-(phenylmethylamino)hexylamino]-pentanoyloxymethyl]-1,3-oxathiolan-5-yl]-2(1H)-pyrimidinone] | 0.9
14 | Nc1ccn([C@@H]2CS[C@H](COC(=O)CCCCCNCc3ccccc3)O2)c(=O)n1 (relative stereo) [Compound 52, (±)-4-Amino-1-[2-[6-(phenylmethylamino)hexanoyloxymethyl]-1,3-oxathiolan-5-yl]-2(1H)-pyrimidinone] | 0.1 to 1
15 | Nc1ccn([C@@H]2CS[C@H](COC(=O)CCCCCNCc3cccc(C(F)(F)F)c3)O2)c(=O)n1 (relative stereo) [Compound 53, (±)-4-Amino-1-[2-[6-[(3trifluorophenyl)methylamino]-hexanoyloxymethyl]-1,3-oxathiolan-5-yl]-2(1H)-pyrimidinone] | 0.7
16 | Nc1ccn([C@@H]2CS[C@H](COC(=O)CCCCCNCCCCCCNCc3ccccc3C(F)(F)F)O2)c(=O)n1 (relative stereo) [Compound 54, (±)-4-Amino-1-[2-[6-[6-[(2-trifluoromethylphenyl)methylamino]-hexylamino]-hexanoyloxymethyl]-1,3-oxathiolan-5-yl]-2(1H)-pyrimidinone] | 0.8
17 | Nc1ccn([C@@H]2CS[C@H](COC(=O)CCCCCNCc3ccccc3C(F)(F)F)O2)c(=O)n1 (relative stereo) [Compound 55, (±)-4-Amino-1-[2-[6-[(2-trifluorophenyl)methylamino]-hexanoyloxymethyl]-1,3-oxathiolan-5-yl]-2(1H)-pyrimidinone] | 0.1
18 | O=C(CCCCCNCCCCCCNCc1ccccc1)Nc1ccn([C@@H]2CS[C@H](CO)O2)c(=O)n1 (relative stereo) [Compound 56, (±)-1-(2-Hydroxymethyl-1,3-oxathiolan-5-yl)-4-[6-[6-phenylmethylamino)hexylamino]-hexanoylamino]-2(1H)-pyrimidinone] | 0.13
19 | O=C(CCCCCNCCCCCNCc1ccccc1)Nc1ccn([C@@H]2CS[C@H](CO)O2)c(=O)n1 (relative stereo) [Compound 57, (±)-1-(2-Hydroxymethyl-1,3-oxathiolan-5-yl)-4-[6-[5-(phenylmethylamino)pentylamino]-hexanoylamino]-2(1H)-pyrimidinone] | 0.41
20 | CC(C)(C)OC(=O)N(CCCCCC(=O)OC[C@H]1O[C@@H](n2ccc(N)nc2=O)CS1)CCCCCN(Cc1ccccc1)C(=O)OC(C)(C)C [Compound 2, (2S, 5R)-4-Amino-1-[2-[6-[5-(N'-tert-butoxycarbonyl-N'-phenylmethylamino)-N-tert-butoxycarbonyl-pentylamino]-hexanoyloxymethyl]-1,3-oxathiolan-5-yl]-2(1H)-pyrimidinone] | < 0.1

System: HIV
Test: not given
Conditions: compared with zidovudine, zalcitabine, didanosine and stavudine; WO 91/17159; cited from earlier work

Row | SMILES | antiviral potency and toxicity compared with other RT-inhibitors
21 | Nc1ccn([C@@H]2CS[C@H](CO)O2)c(=O)n1 [lamivudine, (2R-cis)-4-amino-1-(2-hydroxymethyl-1,3-oxathiolan-5-yl)-2(1H)-pyrimidinone] | more potent and less toxic antiviral than zidovudine, zalcitabine, didanosine and stavudine
